Results as given in ChEMBL document CHEMBL5042478, “Design, Synthesis, and Evaluation of VHL-Based EZH2 Degraders to Enhance Therapeutic Activity against Lymphoma” (J Med Chem, 2021).
Calls of active or inactive are those of the source. The rule behind the calls is not given here.

What was measured:
[1] = target: T1, Protein cereblon/Histone-lysine N-methyltransferase EZH2 (Homo sapiens) (UniProt Q15910+Q96SW2); assay: Protac activity at CRBN E3 ligase/EZH2 in human 22Rv1 cells assessed as degradation of EZH2 at 1 uM incubated for 48 hrs by Western blot analysis; format: cell-based
[2] = target: T1, Protein cereblon/Histone-lysine N-methyltransferase EZH2 (Homo sapiens); assay: Protac activity at CRBN E3 ligase/EZH2 in human 22Rv1 cells assessed as inhibition of H3K27me3 at 1 uM incubated for 48 hrs by Western blot analysis; format: cell-based
[3] = target: T1, Protein cereblon/Histone-lysine N-methyltransferase EZH2 (Homo sapiens); assay: Protac activity at CRBN E3 ligase/EZH2 in human 22Rv1 cells assessed as degradation of EZH2 at 3 uM incubated for 48 hrs by Western blot analysis; format: cell-based
[4] = target: T1, Protein cereblon/Histone-lysine N-methyltransferase EZH2 (Homo sapiens); assay: Protac activity at CRBN E3 ligase/EZH2 in human 22Rv1 cells assessed as inhibition of H3K27me3 at 3 uM incubated for 48 hrs by Western blot analysis; format: cell-based
[5] = target: T1, Protein cereblon/Histone-lysine N-methyltransferase EZH2 (Homo sapiens); assay: Protac activity at CRBN E3 ligase/EZH2 in human 22Rv1 cells assessed as inhibition of H3K27me3 at 0.3 uM incubated for 48 hrs by Western blot analysis; format: cell-based
[6] = target: T1, Protein cereblon/Histone-lysine N-methyltransferase EZH2 (Homo sapiens); assay: Protac activity at CRBN E3 ligase/EZH2 in human 22Rv1 cells assessed as degradation of EZH2 at 0.3 uM incubated for 48 hrs by Western blot analysis; format: cell-based
DLBCL [7] = assay: Antitumor activity against patient derived human DLBCL cells assessed as EZH2 degradation for 24 hrs by western blot analysis; format: functional, cell-based; conditions: dose 0.1-5 µM
SU-DHL-6 [8] = assay: Antitumor activity against human SU-DHL-6 cells xenografted in nude Balb/c mouse assessed as reduction in tumor volume at 42.5 mg/kg, ip administered for 6 times weekly for 3 weeks; format: functional, organism-based
[9] = target: von Hippel-Lindau disease tumor suppressor/Histone-lysine N-methyltransferase EZH1 (Homo sapiens) (UniProt Q92800+P40337); assay: Protac activity at VHL/EZH1 in human 22Rv1 cells assessed as EZH1 protein abundance at 1 to 6 uM after 24 hrs by Western blot analysis; format: cell-based; conditions: dose 1-6 µM
DLBCL [10] = assay: Antitumor activity against patient derived human DLBCL cells assessed as increase in capase-6 activity at 1 to 7 uM incubated for 48 hrs by western blot analysis; format: functional, cell-based; conditions: dose 1-7 µM
SU-DHL-6 [11] = assay: Induction of apoptosis in human SU-DHL-6 cells assessed as increase in cleaved capase-3 level at 1 to 5 uM incubated for 48 hrs by Western blot analysis; format: functional, cell-based; conditions: dose 1-5 µM
SU-DHL-6 [12] = assay: Antitumor activity against human SU-DHL-6 cells xenografted in Balb/c mouse assessed as inhibition of tumor growth at 80 mg/kg, ip administered for 6 times weekly for 3 weeks by Ki67 staining based immunohistochemistry; format: functional, organism-based
DLBCL [13] = assay: Antitumor activity against patient derived human DLBCL cells assessed as reduction in cell viability at 1 to 7 uM incubated for 48 hrs by adenosine triphosphate assay; format: functional, cell-based; conditions: dose 1-7 µM
SU-DHL-6 [14] = assay: Antitumor activity against human SU-DHL-6 cells xenografted in nude Balb/c mouse assessed as reduction in H3K27me3 level in tumor tissue at 80 mg/kg, ip administered for 6 times weekly for 3 weeks by Western blot analysis; format: functional, organism-based
SU-DHL-2 = assay: Antiproliferative activity against human SUDHL2 cells assessed as reduction in cell viability at 0.01 to 10 uM measured after 5 days by MTS assay; format: functional, cell-based; conditions: dose 0.01-10 µM, time 5.0 day
SU-DHL-6 [15] = assay: Antiproliferative activity against human SU-DHL-6 cells assessed as reduction in cell viability at 0.01 to 10 uM measured after 5 days by MTS assay; format: functional, cell-based; conditions: dose 0.01-10 µM, time 5.0 day
[16] = target: T2, von Hippel-Lindau disease tumor suppressor/Histone-lysine N-methyltransferase EZH2 (Homo sapiens) (UniProt Q15910+P40337); assay: Protac activity at VHL/EZH2 in human 22Rv1 cells assessed as reduction in H3K27me3 level after 24 hrs by Western blot analysis; format: cell-based; conditions: dose 1-6 µM
[17] = Toxicity in nude BALB/c mouse xenografted with SU-DHL-6 cells assessed as weight loss at 80 mg/kg, ip administered for 6 times weekly for 3 weeks; format: organism-based; conditions: in vivo, 504 h
SUD4 = assay: Antiproliferative activity against human SU-DHL-4 cells assessed as reduction in cell viability at 0.01 to 10 uM measured after 5 days by MTS assay; format: functional, cell-based; conditions: dose 0.01-10 µM, time 5.0 day
SU-DHL-6 [18] = assay: Induction of cell cycle arrest in human SU-DHL-6 cells assessed as accumulation of cells at sub G1 phase after 24 hrs by flow cytometry; format: functional, cell-based; conditions: dose 1-5 µM
[19] = target: T2, von Hippel-Lindau disease tumor suppressor/Histone-lysine N-methyltransferase EZH2 (Homo sapiens); assay: Protac activity at VHL/EZH2 in human 22Rv1 cells assessed as EZH2 protein abundance after 24 hrs by Western blot analysis; format: cell-based; conditions: dose 1-6 µM
SU-DHL-6 [20] = assay: Antitumor activity against human SU-DHL-6 cells xenografted in nude Balb/c mouse assessed as reduction in tumor volume at 80 mg/kg, ip administered for 6 times weekly for 3 weeks; format: functional, organism-based
[21] = target: T2, von Hippel-Lindau disease tumor suppressor/Histone-lysine N-methyltransferase EZH2 (Homo sapiens); assay: Protac activity at VHL/EZH2 in human 22Rv1 cells assessed as increase in EZH2 ubiquitination at 2 uM for 12 hrs by immunoprecipitation based Western blot analysis; format: cell-based
[22] = target: T2, von Hippel-Lindau disease tumor suppressor/Histone-lysine N-methyltransferase EZH2 (Homo sapiens); assay: Protac activity at VHL/EZH2 in human 22Rv1 cells assessed as reduction in EZH2 level at 1 uM incubated for 48 hrs by Western blot analysis; format: cell-based
SU-DHL-6 [23] = assay: Antitumor activity against human SU-DHL-6 cells xenografted in nude Balb/c mouse assessed as reduction in EZH2 level in tumor tissue at 80 mg/kg, ip administered for 6 times weekly for 3 weeks by Western blot analysis; format: functional, organism-based
[24] = target: T2, von Hippel-Lindau disease tumor suppressor/Histone-lysine N-methyltransferase EZH2 (Homo sapiens); assay: Protac activity at VHL/EZH2 in human 22Rv1 cells assessed as reduction in H3K27me3 level at 1 uM incubated for 48 hrs by Western blot analysis; format: cell-based
SU-DHL-6 [25] = assay: Antitumor activity against human SU-DHL-6 cells xenografted in Balb/c mouse assessed as […] in tumor tissue at 80 mg/kg, ip administered for 6 times weekly for 3 weeks by Ki67 staining based immunohistochemistry; format: functional, organism-based
SU-DHL-6 [26] = assay: Induction of cell cycle arrest in human SU-DHL-6 cells after 24 hrs by flow cytometry; format: functional, cell-based; conditions: dose 1-5 µM
SU-DHL-6 [27] = assay: Induction of apoptosis in human SU-DHL-6 cells at 1 to 5 uM incubated for 48 hrs by Annexin V/propidium iodide staining based flow cytometry; format: functional, cell-based; conditions: dose 1-5 µM
DLBCL [28] = assay: Antitumor activity against patient derived human DLBCL cells assessed as increase in capase-3 activity at 1 to 7 uM incubated for 48 hrs by western blot analysis; format: functional, cell-based; conditions: dose 1-7 µM
SU-DHL-6 [29] = assay: Induction of apoptosis in human SU-DHL-6 cells assessed as increase in cleaved PARP level at 1 to 5 uM incubated for 48 hrs by Western blot analysis; format: functional, cell-based; conditions: dose 1-5 µM

T1 sequence (Q15910 whole entry, looked up): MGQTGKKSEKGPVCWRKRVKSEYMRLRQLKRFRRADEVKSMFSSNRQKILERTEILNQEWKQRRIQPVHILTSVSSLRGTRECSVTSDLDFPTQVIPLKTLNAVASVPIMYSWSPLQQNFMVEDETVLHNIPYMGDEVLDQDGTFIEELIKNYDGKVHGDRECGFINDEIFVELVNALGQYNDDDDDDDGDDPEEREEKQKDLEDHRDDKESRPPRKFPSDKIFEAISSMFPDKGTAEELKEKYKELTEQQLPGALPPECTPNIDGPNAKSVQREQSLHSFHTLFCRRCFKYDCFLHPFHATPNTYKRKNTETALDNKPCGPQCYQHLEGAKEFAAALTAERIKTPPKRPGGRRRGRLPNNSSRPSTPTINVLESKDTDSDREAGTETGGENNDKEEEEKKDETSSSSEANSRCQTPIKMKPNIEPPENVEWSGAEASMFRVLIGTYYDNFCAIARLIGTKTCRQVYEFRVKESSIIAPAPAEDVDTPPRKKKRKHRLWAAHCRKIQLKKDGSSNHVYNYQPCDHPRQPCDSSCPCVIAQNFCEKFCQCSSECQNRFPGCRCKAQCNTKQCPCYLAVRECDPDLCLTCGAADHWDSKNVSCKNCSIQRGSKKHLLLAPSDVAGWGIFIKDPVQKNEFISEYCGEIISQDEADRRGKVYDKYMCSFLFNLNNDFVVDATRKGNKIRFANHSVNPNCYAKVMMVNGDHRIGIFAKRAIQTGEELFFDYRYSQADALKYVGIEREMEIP
T1 sequence (Q96SW2 whole entry, looked up): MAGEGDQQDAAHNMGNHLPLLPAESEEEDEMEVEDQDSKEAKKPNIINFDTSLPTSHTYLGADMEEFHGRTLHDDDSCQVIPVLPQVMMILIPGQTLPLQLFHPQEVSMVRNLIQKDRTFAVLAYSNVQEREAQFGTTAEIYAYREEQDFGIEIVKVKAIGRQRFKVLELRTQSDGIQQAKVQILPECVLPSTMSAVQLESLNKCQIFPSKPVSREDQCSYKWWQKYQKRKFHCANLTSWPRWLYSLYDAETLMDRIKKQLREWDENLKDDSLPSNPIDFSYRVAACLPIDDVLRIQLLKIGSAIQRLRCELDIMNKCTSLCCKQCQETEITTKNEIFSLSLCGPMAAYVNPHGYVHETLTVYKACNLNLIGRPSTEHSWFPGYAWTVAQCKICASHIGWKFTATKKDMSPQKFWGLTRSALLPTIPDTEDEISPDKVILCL
T2 sequence (P40337 whole entry, looked up): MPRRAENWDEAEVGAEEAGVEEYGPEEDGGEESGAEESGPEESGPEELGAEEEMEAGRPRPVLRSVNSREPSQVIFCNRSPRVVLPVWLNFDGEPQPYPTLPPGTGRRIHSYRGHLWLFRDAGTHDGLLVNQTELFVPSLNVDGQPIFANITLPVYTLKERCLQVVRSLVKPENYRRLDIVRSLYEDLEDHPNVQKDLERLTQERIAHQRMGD
T2 sequence (Q15910 whole entry, looked up): as the sequence (Q15910 whole entry, looked up) above
von Hippel-Lindau disease tumor suppressor/Histone-lysine N-methyltransferase EZH1 (Homo sapiens), sequence (P40337 whole entry, looked up): as the sequence (P40337 whole entry, looked up) above
von Hippel-Lindau disease tumor suppressor/Histone-lysine N-methyltransferase EZH1 (Homo sapiens), sequence (Q92800 whole entry, looked up): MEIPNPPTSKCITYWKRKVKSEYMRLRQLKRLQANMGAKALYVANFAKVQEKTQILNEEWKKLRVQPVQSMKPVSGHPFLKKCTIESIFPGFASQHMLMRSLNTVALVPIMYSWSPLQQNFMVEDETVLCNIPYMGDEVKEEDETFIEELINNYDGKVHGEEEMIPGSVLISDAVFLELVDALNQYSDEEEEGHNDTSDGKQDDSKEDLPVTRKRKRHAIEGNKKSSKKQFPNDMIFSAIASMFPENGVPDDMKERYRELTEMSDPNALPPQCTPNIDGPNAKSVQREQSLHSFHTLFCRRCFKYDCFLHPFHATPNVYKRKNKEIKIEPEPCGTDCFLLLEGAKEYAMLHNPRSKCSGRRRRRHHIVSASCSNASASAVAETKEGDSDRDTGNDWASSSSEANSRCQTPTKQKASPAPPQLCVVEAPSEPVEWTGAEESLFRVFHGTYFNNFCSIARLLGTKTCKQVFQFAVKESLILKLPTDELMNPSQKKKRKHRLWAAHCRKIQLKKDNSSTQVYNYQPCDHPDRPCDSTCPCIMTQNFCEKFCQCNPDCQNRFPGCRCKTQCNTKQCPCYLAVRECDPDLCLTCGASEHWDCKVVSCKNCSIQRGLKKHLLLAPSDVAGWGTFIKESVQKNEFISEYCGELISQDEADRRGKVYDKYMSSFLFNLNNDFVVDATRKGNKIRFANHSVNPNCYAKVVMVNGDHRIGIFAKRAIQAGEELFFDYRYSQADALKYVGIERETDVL

Question: Which results are given for `CCN(c1cc(-c2ccc(C(=O)NCCOCCOCCOCCOc3cccc4c3C(=O)N(C3CCC(=O)NC3=O)C4=O)cc2)cc(C(=O)NCc2c(C)cc(C)[nH]c2=O)c1C)C1CCOCC1` (stereo not given)?
Answer: Activity [1]: inactive; Activity [2]: Active; Activity [3]: inactive; Activity [4]: Active; Activity [5]: inactive; Activity [6]: inactive

Question: With `CCN(c1cc(-c2ccc(OCCCOCC(=O)N[C@H](C(=O)N3C[C@H](O)C[C@H]3C(=O)NCc3ccc(-c4scnc4C)cc3)C(C)(C)C)cc2)cc(C(=O)NCc2c(C)cc(C)[nH]c2=O)c1C)C1CCOCC1` as the compound, how does the Activity (DLBCL [7]) read?
Answer: Dose-Dependent Effect

Question: And the Activity (SU-DHL-6 [8])?
Answer: inactive

Question: What about the Activity [9] of the same compound?
Answer: inactive

Question: And the Activity (DLBCL [10])?
Answer: Active

Question: What about the Activity (SU-DHL-6 [11]) of the same compound?
Answer: Active

Question: What about the Activity (SU-DHL-6 [12]) of the same compound?
Answer: Active

Question: And the Activity (DLBCL [13])?
Answer: Active

Question: And the Activity (SU-DHL-6 [14])?
Answer: Active

Question: And the Activity (SU-DHL-2)?
Answer: Active

Question: And the Activity (SU-DHL-6 [15])?
Answer: Active

Question: What about the Activity [16] of the same compound?
Answer: Dose-Dependent Effect

Question: And the Activity [17]?
Answer: Non-Toxic

Question: What about the Activity (SUD4) of the same compound?
Answer: Active

Question: And the Activity (SU-DHL-6 [18])?
Answer: Dose-Dependent Effect

Question: And the Activity [19]?
Answer: Dose-Dependent Effect

Question: What about the Activity (SU-DHL-6 [20]) of the same compound?
Answer: Active

Question: What about the Activity [21] of the same compound?
Answer: Active

Question: What about the Activity [22] of the same compound?
Answer: Active

Question: What about the Activity (SU-DHL-6 [23]) of the same compound?
Answer: Active

Question: What about the Activity [24] of the same compound?
Answer: Active

Question: What about the Activity (SU-DHL-6 [25]) of the same compound?
Answer: Active

Question: What about the Activity (SU-DHL-6 [26]) of the same compound?
Answer: Dose-Dependent Effect

Question: What about the Activity (SU-DHL-6 [27]) of the same compound?
Answer: Dose-Dependent Effect

Question: What about the Activity (DLBCL [28]) of the same compound?
Answer: Active

Question: And the Activity (SU-DHL-6 [29])?
Answer: Active

Question: Which results are given for `CCN(c1cc(-c2ccc(C(=O)NCCOCCOCCOCC(=O)N[C@H](C(=O)N3C[C@H](O)C[C@H]3C(=O)NCc3ccc(-c4scnc4C)cc3)C(C)(C)C)cc2)cc(C(=O)NCc2c(C)cc(C)[nH]c2=O)c1C)C1CCOCC1`?
Answer: Activity [22]: inactive; Activity [24]: inactive

Question: With `CCN(c1cc(-c2ccc(C(=O)NCCOCCOCC(=O)N[C@H](C(=O)N3C[C@H](O)C[C@H]3C(=O)NCc3ccc(-c4scnc4C)cc3)C(C)(C)C)cc2)cc(C(=O)NCc2c(C)cc(C)[nH]c2=O)c1C)C1CCOCC1` as the compound, how does the Activity [24] read?
Answer: Active

Question: Which results are given for `CCN(c1cc(-c2ccc(C(=O)NCCOCCOCCOc3cccc4c3C(=O)N(C3CCC(=O)NC3=O)C4=O)cc2)cc(C(=O)NCc2c(C)cc(C)[nH]c2=O)c1C)C1CCOCC1` (stereo not given)?
Answer: Activity [1]: inactive; Activity [2]: inactive; Activity [3]: inactive; Activity [4]: inactive; Activity [5]: inactive; Activity [6]: inactive
